In the assay the test system is CTSC-overexpressing AT3 cancer cells. Kind of assay: Brensocatib treatment of mice after orthotopic injection of CTSC-overexpressing AT3 cancer cells. The assay is classed as in vivo, C57/BL6 mice. The following applies: brensocatib 5 mg/kg orally twice daily. The method, then:
Female BALB/c and athymic mice aged 6-10 weeks were used in all animal experiments. […] For EdU labeling assays, nude mice were intravenously injected with 2×10^5 cancer cells, followed by intraperitoneal (i.p.) injection of 100 ng/mouse EdU (ThermoFisher, C10640) 24 h before lung harvest. […] For Sivelestat or DNase I treatment, mice were i.p. injected with Sivelestat (50 mg/kg) or DNase I (5 mg/kg) 2 h before cancer cell injection, followed by daily injection of the reagents for 9 days, and then maintenance shots twice a week. For GSK484 treatment, mice were treated with GSK484 (20 mg/kg, i.p. daily shots for 20 days from day 7, and then maintenance shots every two days) following orthotopic injection of AT3 or 4T07 cells. For IL-1b blocking or IL6R/CCR1 inhibition assays, mice were orthotopically inoculated with 5×10^4 AT3 and treated with i.p. administration of IgG or the IL-1β blocking antibody (100 μg per mouse), or the IL6R blocking antibody (100 μg per mouse) and the CCR1 inhibitor BX471 (20 mg/kg), every two days from day 7 until the mice were sacrificed. For brensocatib treatment, BALB/c mice were orthotopically inoculated with 1×10^5 4T1 cells, and C57/BL6 mice were orthotopically inoculated with 2×10^5 AT3. Vehicle controls (0.5% HPMC, 0.1% Tween 80 in 0.1 M citrate buffer, pH 3) and brensocatib (5 mg/kg) were administered orally twice daily until the mice were sacrificed. Orthotopic tumors were surgically removed at the size of about 1 cm^3. […] For TSP-1 degradation assays, mice were i.p. injected with GSK484 (20 mg/kg) 2 h before cancer cell injection and followed by daily treatment. Then, the lungs were perfused with 50 ml of pre-chilled PBS through the right ventricle until they were cleared of blood at 72 h post injection of 3×10^6 AT3 or 4T07 cells. BLI was acquired with NightOWL II LB983 Imaging System (Bert-hold) and IVIS Spectrum CT (PerkinElmer). All animal studies were conducted according to the guidelines for the care and use of laboratory animals and were approved by the Institutional Animal Care and Use Committee of Shanghai Institute of Nutrition and Health.

SMILES strings stand for the structures.

For the compound `Cn1c(=O)oc2ccc(-c3ccc(C[C@@H](C#N)NC(=O)[C@@H]4CNCCCO4)cc3)cc21` [brensocatib, (2S)—N-{(1S)-1-cyano-2-[4-(3-methyl-2-oxo-2,3-dihydro-1,3-benzoxazol-5-yl)phenyl]ethyl}-1,4-oxazepane-2-carboxamide], the survival rate entry (FIG. 10J) is recorded as “significant increase”. Where the note is “FIG. 10K”, the “circulating levels of IL-1β” value was “decrease”. Besides, under “FIGS. 10G-I”, the “circulating NETs” value is “Decreases”, the lung metastases result is “Decreases”, the “lung metastatic nodule formation” value was “Decreases” and the neutrophil migration entry is reported as “Decreases”.

For the origin of these results see patent US12697328B2, “Methods for treating metastasis with cathepsin C inhibitors” (Shanghai Institute of Nutrition and Health, Chinese Academy …, priority 2020, dated 2026).
